From publication PMC12591170, “Glabridin‐Gold(I) Complex as a Novel Immunomodulatory Agent Targeting TrxR and MAPK Pathways for Synergistic Enhancement of Antitumor Immunity” (Advanced Science, 2025) come the findings set out here.

The structures appear in SMILES notation. “Also recorded” adds a separate entry of the source.

The test system of one experiment is Hepa1-6 cells. As to the kind of experiment: MTT antiproliferative assay, Hepa1-6. Particulars: Hepa 1-6 cells. In kind it is cell-based. As to the method: (§1) All cells were incubated at 37 °C by DMEM complete medium (containing 1% penicillin−streptomycin and 12% FBS) in 5% CO2 incubator. 2–5 × 10^3 cells were cultured in 96‐well plates and each well contained 100 µL complete medium. OXA was dissolved in water, and all other complexes were dissolved in DMF. After cells adhered in the wells, different concentrations of complexes were diluted in 100 µL complete medium and added in the wells. The final volume in the each well was 200 µL and the content of DMF was maximum 0.5%. After 72 h incubation, the antiproliferative activity was tested by MTT assay.

For the next experiment, the system named is 293T cells. As to the kind of experiment: MTT assay, normal kidney cell line 293T. Particulars: 72 h MTT assay, Mean ± SD. In kind it is cell-based. As to the method: as §1
In the next experiment the test system is purified TrxR. As to the kind of experiment: Purified TrxR activity assay (DTNB). The conditions noted are these: 0.625-20 µM. The experiment is classed as biochemical. On the procedure:
Different concentrations of complex 6d solution and 1.8 U purified TrxR were added to the wells (25 µL per well separately). Consequently, the reaction solution (20 mg mL^−1 BSA, 500 mM EDTA‐2Na, and 40 mg mL^−1 NADPH, diluted in a 1:1 mixture of PBS and water) was added to the 96 wells (225 µL per well). Finally, 25 mg mL^−1 DTNB solution was added (25 µL per well) and OD values were immediately measured at 405 nm. The linear growth at 405 nm was calculated to show the purified TrxR activity. Final concentrations of complex 6d were 0.625, 1.25, 2.5, 5, 10, 20 µM.

The next experiment deals with T1, TrxR (Homo sapiens, UniProt Q16881).
T1 construct: endogenous in cells; host or cells: HepG2
T1 sequence (Q16881 151-649 limits assumed): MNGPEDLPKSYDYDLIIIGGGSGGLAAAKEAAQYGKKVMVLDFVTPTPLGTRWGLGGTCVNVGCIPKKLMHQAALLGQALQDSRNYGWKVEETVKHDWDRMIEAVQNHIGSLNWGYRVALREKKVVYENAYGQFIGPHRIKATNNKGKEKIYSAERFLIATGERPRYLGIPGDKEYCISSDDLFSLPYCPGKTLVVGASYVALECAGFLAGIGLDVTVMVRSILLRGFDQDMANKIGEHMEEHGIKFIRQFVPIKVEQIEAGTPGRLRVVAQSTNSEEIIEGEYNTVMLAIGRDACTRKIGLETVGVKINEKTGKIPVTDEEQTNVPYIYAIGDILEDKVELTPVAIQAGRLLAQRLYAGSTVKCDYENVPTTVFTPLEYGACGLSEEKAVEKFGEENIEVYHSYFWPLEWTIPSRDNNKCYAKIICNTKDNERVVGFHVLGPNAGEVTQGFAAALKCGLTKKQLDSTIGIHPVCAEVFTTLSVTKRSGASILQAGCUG
As to the kind of experiment: CETSA and ITDR assay, TrxR. The experiment is classed as binding. Particulars: HepG2 proteins, 8 µM, ITDR at 78 °C. As to the method:
(§2) The treated HepG2 cells in 10 cm culture dishes were collected and washed with PBS. The collected cells were repeatedly frozen and thawed for 3 times by liquid nitrogen and 37 °C water bath. Then, proteins were isolated by centrifugation. The isolated proteins were divided into different tubes and incubated with same concentration of 6d at different temperature. Western blot was applied for CETSA by analyzing the band intensity of different temperature groups.
(§3) The temperature, which results in significant band differences between 6d and control group, was selected for ITDR assay. The isolated proteins were divided into different tubes and incubated with different concentration of 6d at same temperature. The binding between 6d and target protein was assessed by analyzing the band intensity of different concentration groups.

For a further experiment, the system named is MEK1/2. As to the kind of experiment: CETSA and ITDR assay, MEK1/2. The experiment is classed as binding, human. Particulars: HepG2 proteins, 8 µM, ITDR at 78 °C. On the procedure: as §2, §3
In experiment [1] the test system is HepG2 cells. As to the kind of experiment: MMP measurement (JC-1). The experiment is classed as cell-based, human. Particulars: HepG2, 24 h. On the procedure: 12‐well plate was applied to incubate HepG2 cells (5 × 10^4 cells per wells). After overnight, cells were treated with DMF (0.1%), AF (4 µM) or different concentrations of 6d (2, 4, 8 µM) for 24 h. 2.5 µg mL^−1 JC‐1 probe was added in the wells after removing original liquid. 15 min later, PBS was applied to wash cells for two times. Then, the fluorescence images were captured by the fluorescence microscopy.

The subject of experiment [2] is HepG2 cells. As to the kind of experiment: DAMPs / ICD effect (CRT, HMGB1, ATP release). In kind it is cell-based, human. As to the method: 6‐well plate was applied to incubate 2 × 10^5 HepG2 cells. […] After treatment, the liquid was collected for extracellular ATP release assay by ATP Assay kit.
(§4) HepG2 cells were incubated in 6 cm culture dishes and treated with different complexes. The treated cells were lysed with lysis buffer (RIPA:PMSF:phosphatase inhibitor:protease inhibitor = 100:1:1:1). The lysed cells were further broken by sonication, and proteins were isolated by centrifugation. The protein concentrations were detected by BCA assay. 10% SDS PAGE gel was usually applied to separate the different kDa of proteins, and more than 200 kDa of proteins were separated using 8% SDS PAGE gel. After seperation, proteins were transferred onto polyvinylidene difluoride (PVDF) membranes. The target proteins were labeled by various specific primary antibodies at 4 °C overnight. Then, the membranes were treated with anti‐rabbit or anti‐mouse secondary antibody for 2 h. Tris buffered saline with tween 20 (TBST) was applied to wash the membranes after each operation above. The target proteins’ bands were detected by the enhanced chemiluminescence (ECL) procedure.
(§5) 5 × 10^4 HepG2 cells were treated with complexes in 24‐well plates for 24 h. Subsequently, cells were fixed with 4% paraformaldehyde. Various specific antibodies were added for incubation at 4 °C overnight after cells were permeabilized with Triton X‐100 (except for membrane proteins) and blocked with BSA. Then, the cells were incubated with fluorescently‐labeled secondary antibodies in darkness for 2 h. After that, DAPI was added to stain nuclear in darkness. PBS was applied for washing after each operation above (Tris buffered saline (TBS) was applied for washing if phosphorylated protein was analyzed). The cell images were captured by the fluorescence microscopy.

Another experiment has as its system PD-L1. As to the kind of experiment: PD-L1 expression in HepG2 (western blot, immunofluorescence, flow cytometry). In kind it is cell-based, human. The conditions noted are these: HepG2, 24 h. As to the method: as §4, §5
4 × 10^5 HepG2 cells were incubated in 6‐well plates, and complexes were added in the wells. The cells were collected after incubation, and the treated cells were labeled with probes or fluorescently‐labeled antibodies. A flow cytometer was applied to analyze the labeled cells.

Experiment [3] relates to MAPK pathway (phosphorylated MEK1/2 and ERK1/2). As to the kind of experiment: In vivo MAPK pathway in tumor tissue. The arrangement: species or system C57BL/6 mice. The conditions noted are these: western blot, day 13.

Regarding `CCn1ccn(CCCCCOc2ccc([C@@H]3COc4c(ccc5c4C=CC(C)(C)O5)C3)c(OCCCCCn3ccn(CC)[c]3=[Au][Br])c2)[c]1=[Au][Br]` [6d], the “times more toxic than GLA” value with Hepa1-6 cells came to 34 times. The same compound gave an IC50 in the experiment on 293T cells of 5.14 ± 0.3 µM. Further, the “purified TrxR activity” value with purified TrxR was “suppressed TrxR activity”. For the same compound, the “binding to TrxR (CETSA, ITDR)” value at TrxR is recorded as “significant binding”. For the same compound, the “binding to MEK1/2 (CETSA, ITDR)” value in the experiment on MEK1/2 is reported as “significant binding”. For the same compound, in the experiment on HepG2 cells [1], the “mitochondrial membrane potential (MMP)” value is listed as “decreased MMP”. Moreover, the “time required for ATP release” value with HepG2 cells [2] (HepG2, 8 µM, ATP assay kit) is given as 48 h. Further, in the experiment with HepG2 cells [2] (HepG2, 24 h), the “CRT expression (western blot)” value is reported as “CRT upregulation” and the “HMGB1 expression (western blot)” value is reported as “HMGB1 downregulation”. Besides, the “PD-L1 expression (western blot)” value in the experiment on PD-L1 is given as “downregulated; also recorded: significantly inhibited”. Besides, in the experiment with PD-L1 (immunofluorescence and flow cytometry), the “PD-L1 expression on the membrane surface” value was “reduced”. The “MAPK pathway activation (phosphorylation of MEK1/2 and ERK1/2) in tumor tissue” value in experiment [3] is on record as “significantly inhibited”.
